Results from ChEMBL document CHEMBL1139561, “Biaryl isoxazolinone antibacterial agents” (Bioorg Med Chem Lett, 2005).
In brackets after ≈: the same amount, converted by molar mass. One block for each compound: values may come before it.

How the values were obtained:
[1] = Maximum serum concentration in mouse was determined; type: ADME, organism-based
Haemophilus influenzae = assay: Minimum inhibition concentration against Haemophilus influenzae strains; type: functional
Staphylococcus aureus [2] = assay: Minimum inhibition concentration against Staphylococcus aureus strains in presence of 8% calf serum; type: functional
[3] = Protective dose against Staphylococcus aureus in mice after 8 days of oral b.i.d. administration at 1 and 5 hr per interval (n=10); type: functional; conditions: read-out: PD50
[4] = Area under curve concentration in mouse was determined; type: ADME; conditions: in vivo
[5] = Half life for compound in mouse was determined; type: ADME; conditions: in vivo
Staphylococcus aureus [6] = assay: Minimum inhibition concentration against Staphylococcus aureus strains in presence of 1% calf serum; type: functional
Staphylococcus aureus [7] = assay: Minimum inhibition concentration against Staphylococcus aureus strains in presence of 0.5% calf serum; type: functional
Staphylococcus aureus [8] = assay: Minimum inhibition concentration against Staphylococcus aureus strains in presence of 16% calf serum; type: functional
Staphylococcus aureus [9] = assay: Minimum inhibition concentration against Staphylococcus aureus strains in presence of 4% calf serum; type: functional
Staphylococcus aureus [10] = assay: Minimum inhibition concentration against Staphylococcus aureus strains in presence of 2% calf serum; type: functional
Mus musculus = assay: Protective dose against Staphylococcus aureus in mice after 8 days of oral b.i.d. administration at 1 and 5 h per interval with water as vehicle (n=10); range is 5-6 mg/kg/day; type: functional; conditions: read-out: PD50
Staphylococcus aureus [11] = assay: Minimum inhibition concentration against Staphylococcus aureus strains in presence of >64% calf serum; type: functional
Staphylococcus aureus [12] = assay: Minimum inhibition concentration against Staphylococcus aureus strains in presence of 32% calf serum; type: functional

SMILES: CC(=O)NCn1cc(-c2ccc(-c3ccc(C(=O)O)cc3)cc2)c(=O)o1
Cmax [1]: 1700 ng/mL
MIC (Haemophilus influenzae): 2 µg/mL (≈ 5.68 µM)
MIC (Staphylococcus aureus [2]): 1 µg/mL
ED50 [3]: > 50 mg/kg/day
AUC [4]: 0.56 µg/h/mL
half-life [5]: 8.5 min

MIC (Haemophilus influenzae): 64 µg/mL (≈ 187 µM)
MIC (Staphylococcus aureus [6]): 0.5 µg/mL
SMILES: CC(=O)NCn1cc(-c2ccc(-c3sccc3C=O)cc2)c(=O)o1

SMILES: CC(=O)NCn1cc(-c2ccc(-c3ccncc3)cc2)c(=O)o1
Cmax [1]: 17700 ng/mL
MIC (Haemophilus influenzae): 2 µg/mL (≈ 6.47 µM)
ED50 [3]: 8.9 mg/kg/day
AUC [4]: 56 µg/h/mL
half-life [5]: 203 min
MIC (Staphylococcus aureus [7]): 0.06 µg/mL

MIC (Staphylococcus aureus [8]): 0.5 µg/mL
MIC (Haemophilus influenzae): > 32 µg/mL
SMILES: CC(=O)NCn1cc(-c2ccc(-c3ccc(OC(F)(F)F)cc3)cc2)c(=O)o1

SMILES: CC(=O)NCn1cc(-c2ccc(-c3ccc(F)cc3)cc2)c(=O)o1
MIC (Haemophilus influenzae): 2 µg/mL (≈ 6.13 µM)
MIC (Staphylococcus aureus [9]): 0.03 µg/mL
ED50 [3]: < 5 mg/kg/day

MIC (Staphylococcus aureus [8]): 4 µg/mL
MIC (Haemophilus influenzae): > 32 µg/mL
SMILES: COc1cc(-c2ccc(-c3cn(CNC(C)=O)oc3=O)cc2)cc(OC)c1OC

MIC (Haemophilus influenzae): 4 µg/mL (≈ 11.4 µM)
MIC (Staphylococcus aureus [10]): 0.06 µg/mL
SMILES: CC(=O)NCn1cc(-c2ccc(-c3ccc(C(C)=O)cc3)cc2)c(=O)o1

MIC (Staphylococcus aureus [8]): 0.5 µg/mL
MIC (Haemophilus influenzae): > 32 µg/mL
SMILES: CSc1ccc(-c2ccc(-c3cn(CNC(C)=O)oc3=O)cc2)cc1

SMILES: CC(=O)NC[C@H]1CN(c2ccc(N3CCOCC3)c(F)c2)C(=O)O1 [LINEZOLID]
ED50 (Mus musculus): 6 mg/kg/day
MIC (Haemophilus influenzae): 32 µg/mL (≈ 94.9 µM)
MIC (Staphylococcus aureus [10]): 1 µg/mL

MIC (Haemophilus influenzae): 64 µg/mL (≈ 173 µM)
MIC (Staphylococcus aureus [11]): 32 µg/mL
SMILES: CC(=O)NCn1cc(-c2ccc(-c3ccc(F)c(C(=O)O)c3)cc2)c(=O)o1

MIC (Haemophilus influenzae): > 64 µg/mL
MIC (Staphylococcus aureus [2]): 4 µg/mL
SMILES: CC(=O)NCn1cc(-c2ccc(-c3ncn(C)n3)cc2)c(=O)o1

MIC (Haemophilus influenzae): 2 µg/mL (≈ 6.19 µM)
MIC (Staphylococcus aureus [10]): 0.125 µg/mL
SMILES: CC(=O)NCn1cc(-c2ccc(-c3cccc(N)c3)cc2)c(=O)o1

MIC (Haemophilus influenzae): > 64 µg/mL
MIC (Staphylococcus aureus [6]): 0.06 µg/mL
SMILES: COc1cccc(-c2ccc(-c3cn(CNC(C)=O)oc3=O)cc2)c1

MIC (Staphylococcus aureus [8]): 8 µg/mL
MIC (Haemophilus influenzae): 32 µg/mL (≈ 77 µM)
SMILES: CC(=O)NCn1cc(-c2ccc(C3CCN(C(=O)OC(C)(C)C)CC3)cc2)c(=O)o1

MIC (Haemophilus influenzae): > 32 µg/mL
MIC (Staphylococcus aureus [2]): 2 µg/mL
SMILES: COc1ccc(-c2ccc(-c3cn(CNC(C)=O)oc3=O)cc2)c(OC)c1

MIC (Haemophilus influenzae): 8 µg/mL (≈ 24.7 µM)
MIC (Staphylococcus aureus [10]): 1 µg/mL
SMILES: CC(=O)NCn1cc(-c2ccc(-c3ccc(O)cc3)cc2)c(=O)o1

MIC (Haemophilus influenzae): 32 µg/mL (≈ 86.9 µM)
MIC (Staphylococcus aureus [6]): 0.25 µg/mL
SMILES: COc1ccc(-c2ccc(-c3cn(CNC(C)=O)oc3=O)cc2)cc1OC

MIC (Haemophilus influenzae): > 64 µg/mL
MIC (Staphylococcus aureus [11]): 8 µg/mL
SMILES: CC(=O)NCn1cc(-c2ccc(-c3sccc3CN3CCOCC3)cc2)c(=O)o1

SMILES: CC(=O)NCn1cc(-c2ccc(C3=CC[S+]([O-])CC3)cc2)c(=O)o1 (stereo not drawn)
Cmax [1]: 8300 ng/mL
MIC (Haemophilus influenzae): 2 µg/mL (≈ 5.77 µM)
MIC (Staphylococcus aureus [6]): 0.5 µg/mL
ED50 [3]: 5.6 mg/kg/day
AUC [4]: 5.5 µg/h/mL
half-life [5]: 22.2 min

MIC (Haemophilus influenzae): 32 µg/mL (≈ 101 µM)
MIC (Staphylococcus aureus [10]): 1 µg/mL
SMILES: CC(=O)NCn1cc(-c2ccc(C3CCOCC3)cc2)c(=O)o1

SMILES: CC(=O)NCn1cc(-c2ccc(-c3cccnc3)cc2)c(=O)o1
Cmax [1]: 15300 ng/mL
MIC (Haemophilus influenzae): 2 µg/mL (≈ 6.47 µM)
MIC (Staphylococcus aureus [9]): 0.5 µg/mL
ED50 [3]: 10 mg/kg/day
AUC [4]: 41.1 µg/h/mL
half-life [5]: 86.7 min

MIC (Staphylococcus aureus [12]): 1 µg/mL
MIC (Staphylococcus aureus [12]; Staphylococcus aureus): 1 µg/mL
MIC (Haemophilus influenzae): > 32 µg/mL
SMILES: CC(=O)NCn1cc(-c2ccc(-c3cccc4ccccc34)cc2)c(=O)o1

SMILES: CC(=O)NCn1cc(-c2ccc(C3CCN(C(=O)CO)CC3)cc2)c(=O)o1
MIC (Haemophilus influenzae): 16 µg/mL (≈ 42.8 µM)
MIC (Staphylococcus aureus [10]): 1 µg/mL
ED50 [3]: > 3.5 mg/kg/day

MIC (Haemophilus influenzae): > 32 µg/mL
MIC (Staphylococcus aureus [2]): 0.25 µg/mL
SMILES: CC(=O)NCn1cc(-c2ccc(-c3ccc(C(F)(F)F)cc3)cc2)c(=O)o1

MIC (Haemophilus influenzae): 8 µg/mL (≈ 24.7 µM)
MIC (Staphylococcus aureus [10]): 0.25 µg/mL
SMILES: CC(=O)NCn1cc(-c2ccc(-c3ccc(C)nc3)cc2)c(=O)o1

MIC (Staphylococcus aureus [8]): 32 µg/mL
MIC (Haemophilus influenzae): 32 µg/mL (≈ 101 µM)
SMILES: CC(=O)NCn1cc(-c2ccc(C3CCNCC3)cc2)c(=O)o1

MIC (Haemophilus influenzae): > 32 µg/mL
MIC (Staphylococcus aureus [6]): 0.03 µg/mL
SMILES: CC(=O)NCn1cc(-c2ccc(-c3ccc([N+](=O)[O-])cc3)cc2)c(=O)o1

MIC (Haemophilus influenzae): > 64 µg/mL
MIC (Staphylococcus aureus [2]): 2 µg/mL
SMILES: CC(=O)NCn1cc(-c2ccc(-c3c(C)noc3C)cc2)c(=O)o1

MIC (Haemophilus influenzae): 4 µg/mL (≈ 10.5 µM)
MIC (Staphylococcus aureus [9]): 0.125 µg/mL
SMILES: CC(=O)NCn1cc(-c2ccc(-c3ccc(/C=C/[N+](=O)[O-])cc3)cc2)c(=O)o1
